Read-outs that look alike come from different tables or passages of the source. Non-standard residues stand in square brackets, D forms with d. Residues, ends and D or L forms follow the SMILES beside them. No end group written: not given here. *: point of attachment. dPhe(3,4-Cl2) = N[C@H](Cc1ccc(Cl)c(Cl)c1)C(=O)O; dPhe(4-Cl) = N[C@H](Cc1ccc(Cl)cc1)C(=O)O; d2Nal = N[C@H](Cc1ccc2ccccc2c1)C(=O)O; Lys(iPr) = CC(C)NCCCC[C@H](N)C(=O)O; Orn(iPr) = CC(C)NCCC[C@H](N)C(=O)O; d3Pal = N[C@H](Cc1cccnc1)C(=O)O; Nicotinoyl = O=C(c1cccnc1)*; Picolinoyl = O=C(c1ccccn1)*

Data on eight compounds can be found in patent publication US5763404A, “Methods for using LHRH antagonists with low histamine release” (priority 1995, dated 1998).

The subject of data set [1] is dispersed pituitary cell culture. In words: dispersed pituitary cell culture assay. Format: cell-based.
In the next data set the test system is rat mast cells. As to the kind of experiment: in vitro histamine release test. The conditions noted are these: for In Vitro Histamine Release ED50: rat mast cells, ± SEM. Format: cell-based. The method, then: The antiovulatory activity, AOA, in rats was determined as described by Humphries et al. (12). Antiovulation assays were performed by counting, on estrus, the number of ova shed by 4-day cycling rats after a single sc injection of the LH-RH analogue in corn oil was administered between 12 and 12:30 p.m. on […]. The control rats received 0.3 mL of the vehicle. The wheal test was performed by intradermally injecting 10 ug of peptide in 100 ul of saline into anaesthesized rats, measuring the ideally circular wheal response and calculating the area. The in vitro histamine release test was done as described by Karten et al. (4). A suspension of rat mast cells was added to increasing concentrations of peptide and the mixture was incubated for a few minutes followed by centrifugation to collect the histamine in the supernatant. A PIPES (piperazine-N,N'-bis[2-ethanesulfonic acid]) medium buffered at pH 7.4 containing NaCl 119 mM, KCl 5 mM, PIPES 25 mM, NaOH 40 mM, glucose 5.6 mM, CaCl2 1 mM, and 0.1% bovine serum albumin was used. This was designated as PIPES AC. Peptides were dissolved in double distilled H2 O at a concentration of 2 mg/ml and stored at -20° C. They were thawed just prior to testing, diluted in PIPES AC and prewarmed for five minutes at 37° C. Peptides studied were stable to heating at 56° C. for two hours, and to freezing and thawing.
Peritoneal cells were collected from male Sprague-Dawley rats weighing 200 to 250 gm and purchased from Harlan (Madison, Wis.). After euthanasia by CO2, the peritoneal cavity was washed with 50 ml PIPES AC medium containing 20 units of heparin. Following centrifugation at 200×g for eight minutes at 4° C., cells were washed again and finally resuspended to a concentration of 8 to 24×10^5 total leukocytes/ml in PIPES AC. This suspension contained approximately 5-10% mast cells. Washed cells were used immediately after collection and were prewarmed for five minutes at 37° C. prior to pipetting 0.25 ml aliquots into 12×75 mm polystyrene tubes containing 0.25 ml of diluted peptide. Mixtures were incubated for 15 minutes at 37° C. and the reaction stopped by centrifugation at 400×g for 15 minutes at 4° C. The cell supernatants were assayed for histamine content by the automated fluorometric assay procedure. See, Siraganian, R. P., "An automated continuous flow system for the extraction and fluorometric analysis of histamine." Anal. Biochem. 57:383 (1974); and Siraganian, R. P. and Hook, W. A., "Histamine release and assay methods for the study of human allergy," In Manual of Clinical Immunology, 3rd ed., N. R. Rose, H. Friedman, and J. L. Fahey (Eds.), Amer. Soc. for Microbiology, Washington (1986) p. 808.

Data set [2] concerns anaesthesized rats. In words: wheal test, intradermal injection. Type of data set: in vivo, rat. Set-up: Wheal (wheal response): unit not given here. The following applies: for Wheal: Table I; for Wheal (wheal response): Table XIV and text, unit not given. The procedure, abridged:
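Anaesthetized rats given intradermal injection of 10 ug peptide in 100 ul saline; area of the wheal calculated from its diameter.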

The subject of a further data set is 26 days old female rats. As to the kind of experiment: oral activity: serum LH and FSH after agonist [D-Qal^6]-LHRH. The conditions noted are these: for LH: 2 hours before 10 ng agonist; for FSH / Serum LH: -2 hr, agonist 10 ng sc, +2 hours. Type of data set: in vivo, rat. How it is done:
For the determination of duration of action, the antagonist was administered s.c. or orally to 26 days old female rats at a specific time before administration of the agonist, [D-Qal^6 ]-LHRH. The serum levels of rat luteinizing hormone (LH) and rat follicle stimulating hormone (FSH) were then measured 2 hours after the agonist administration by RIA. The oral administration was done through force-feeding with feeding tubes.

For a further data set, the system named is rats. The conditions noted are these: reported in ref. 16, cited from earlier work.
The test system of data set [3] is anaesthesized rats. The conditions noted are these: From Reference 1; cited from earlier work.

Take “luteinizing hormone releasing hormone (QHWSYGLRPG; ends and bridges not checked; UniProt P01148 24-33, looked up) [LHRH, natural hormone used as agonist in the pituitary cell culture assay]”: the FSH was found to be 221 ± 18 ng/mL in data set [1] (LHRH 0.1 nM alone); 562 ± 48 ng/mL in data set [1] (LHRH 0.3 nM alone); 802 ng/mL in data set [1] (LHRH 1.0 nM alone); 646 ± 123 ng/mL in data set [1] (LHRH 3.0 nM alone); 602 ± 26 ng/mL in data set [1] (LHRH 10.0 nM alone); 557 ± 15 ng/mL in data set [1] (LHRH 30.0 nM alone). For the same compound, the RLH in data set [1] (LHRH 0.1 nM alone) was 40 ± 7 ng/mL; in data set [1] (LHRH 0.3 nM alone), 80 ± 1 ng/mL; in data set [1] (LHRH 1.0 nM alone) it was 118 ng/mL; in data set [1] (LHRH 3.0 nM alone) it was 150 ± 1 ng/mL; in data set [1] (LHRH 10.0 nM alone), 141 ± 4 ng/mL; in data set [1] (LHRH 30.0 nM alone), 152 ± 7 ng/mL.
On to `CC(=O)N[C@H](Cc1ccc2ccccc2c1)C(=O)N[C@H](Cc1ccc(Cl)cc1)C(=O)N[C@H](Cc1cccnc1)C(=O)N[C@@H](CO)C(=O)N[C@@H](CCCCNC(=O)c1cccnc1)C(=O)N[C@H](CCCCNC(=O)c1cccnc1)C(=O)N[C@@H](CC(C)C)C(=O)N[C@@H](CCCCNC(C)C)C(=O)N1CCC[C@H]1C(=O)N[C@H](C)C(N)=O` [Antide, [N-Ac-D-2-Nal^1, D-pClPhe^2, D-3-Pal^3, NicLys^5, D-NicLys^6, ILys^8, D-Ala^10]-LHRH] (Ac-[d2Nal][dPhe(4-Cl)][d3Pal]SK(Nicotinoyl)[dK](Nicotinoyl)L[Lys(iPr)]P[dA]-NH2), for which, in the data set on rat mast cells, the “histamine release (in words)” value is recorded as “released remarkably little histamine”. This compound also had a Wheal in the data set with anaesthesized rats [2] (10 ug peptide intradermally) of 132.7 mm^2 /10. Besides, the “Wheal (wheal response)” value in the data set on anaesthesized rats [2] stood at 132.7.
Turning to `CC(=O)N[C@H](Cc1ccc2ccccc2c1)C(=O)N[C@H](Cc1ccc(Cl)cc1)C(=O)N[C@H](Cc1cccnc1)C(=O)N[C@@H](CO)C(=O)N[C@@H](CCCCNC(=O)c1ccccn1)C(=O)N[C@H](CCCCNC(=O)c1ccccn1)C(=O)N[C@@H](CC(C)C)C(=O)N[C@@H](CCCCNC(C)C)C(=O)N1CCC[C@H]1C(=O)N[C@H](C)C(N)=O` (Ac-[d2Nal][dPhe(4-Cl)][d3Pal]SK(Picolinoyl)[dK](Picolinoyl)L[Lys(iPr)]P[dA]-NH2), in the data set on rat mast cells, the “histamine release (in words)” value is “released no more histamine than do "super agonists" of LHRH”.
On to “[N-Ac-D-2-Nal^1,D-4-F-Phe^2,D-Trp^3,D-Arg^6 ]-LHRH”, for which the “In Vitro Histamine Release ED50” value in the data set on rat mast cells was 0.17 mg/L; in the data set with rat mast cells (listed as [N-Ac-D-2-Nal^1,D-pFPhe^2,D-Trp^3,D-Arg^6 ]-LHRH) it was “about 0.17 μg/ml”; in the data set on rat mast cells (listed as standard compound), 0.1 to 0.2 mg/L. In the data set on rat mast cells (test series in which the standard compound had ED 50 0.46 instead of the usual 0.1-0.2), the “ED 50 (histamine release), starred test series” value is 0.46 mg/L.
Consider “[N-Ac-D-pClPhe^1,2,D-Trp^3,D-Arg^6,D-Ala^10 ]-LHRH [VIII-25]”, for which the LH with 26 days old female rats (oral 30 ug) was 39 ± 6 ng/mL; in the data set with 26 days old female rats (oral 100 ug), 26 ± 7 ng/mL. Further, the FSH in the data set on 26 days old female rats (oral in water 10 μg) is 1794 ± 329 ng/mL; in the data set on 26 days old female rats (oral in water 30 μg), 1470 ± 190 ng/mL; in the data set on 26 days old female rats (oral in water 100 μg), 1161 ± 277 ng/mL. The “Serum LH” value in the data set with 26 days old female rats (oral in water 10 μg) worked out at 59 ± 11 ng/mL; with 26 days old female rats (oral in water 30 μg) it was 39 ± 6 ng/mL; with 26 days old female rats (oral in water 100 μg), 26 ± 7 ng/mL. Further, the rats ovulated/total rats is 9/11 in the data set with rats (oral dose 500 ug), 4/11 in the data set with rats (oral dose 1000 ug) and 0/11 in the data set with rats (oral dose 2000 ug).
Take `CC(=O)N[C@H](Cc1ccc2ccccc2c1)C(=O)N[C@H](Cc1ccc(Cl)cc1)C(=O)N[C@H](Cc1cccnc1)C(=O)N[C@@H](CO)C(=O)N[C@@H](CCCCNC(=O)c1ccccn1)C(=O)N[C@H](CCCCNC(=O)c1ccccn1)C(=O)N[C@@H](CC(C)C)C(=O)N[C@@H](CCCCNC(C)C)C(=O)N1CCC[C@H]1C(=O)N[C@H](C)C(N)=O` [IBR 25147, [N-Ac-D-2-Nal^1,D-pClPhe^2,D-3-Pal^3,PicLys^5,D-PicLys^6, ILys^8,D-Ala^10]-LHRH] (Ac-[d2Nal][dPhe(4-Cl)][d3Pal]SK(Picolinoyl)[dK](Picolinoyl)L[Lys(iPr)]P[dA]-NH2): the “Wheal Area” value in the data set with anaesthesized rats [3] is 123 ± 0 mm^2 /10 μg. Besides, the “Wheal (wheal response)” value with anaesthesized rats [2] came to 123.0.
`CC(=O)N[C@H](Cc1ccc2ccccc2c1)C(=O)N[C@H](Cc1ccc(Cl)c(Cl)c1)C(=O)N[C@H](Cc1cccnc1)C(=O)N[C@@H](CO)C(=O)N[C@@H](CCCCNC(=O)c1ccccn1)C(=O)N[C@H](CCCCNC(=O)c1ccccn1)C(=O)N[C@@H](CC(C)C)C(=O)N[C@@H](CCCCNC(C)C)C(=O)N1CCC[C@H]1C(=O)N[C@H](C)C(N)=O` [compound 25807] (Ac-[d2Nal][dPhe(3,4-Cl2)][d3Pal]SK(Picolinoyl)[dK](Picolinoyl)L[Lys(iPr)]P[dA]-NH2): in the data set with anaesthesized rats [2] (10 ug peptide intradermally), the “Wheal Area” value is recorded as 139.8 ± 7.1 mm^2 /10 μg.
With `CC(=O)N[C@H](Cc1ccc2ccccc2c1)C(=O)N[C@H](Cc1ccc(Cl)cc1)C(=O)N[C@H](Cc1cccnc1)C(=O)N[C@@H](CO)C(=O)N[C@@H](CCCCNC(=O)c1cccnc1)C(=O)N[C@H](CCCCNC(=O)c1cccnc1)C(=O)N[C@@H](CC(C)C)C(=O)N[C@@H](CCCNC(C)C)C(=O)N1CCC[C@H]1C(=O)N[C@H](C)C(N)=O` [compound 24933] (Ac-[d2Nal][dPhe(4-Cl)][d3Pal]SK(Nicotinoyl)[dK](Nicotinoyl)L[Orn(iPr)]P[dA]-NH2), the Wheal in the data set with anaesthesized rats [2] (10 ug peptide intradermally) is 136.0 mm^2 /10.
